The source of these data is patent publication US8415469B2, “Compounds and methods for kinase modulation, and indications therefor” (Plexxikon Inc., priority 2005, dated 2013).

For data set [1], the system named is AML blasts harboring FLT3/ITD mutations. Conditions: primary AML blasts harboring FLT3/ITD mutations; cited from earlier work.
The test system of data set [2] is primary cultures of human and murine microglia. The settings on record: stimulated with endotoxins or Abeta 1-40; cited from earlier work.
In another data set the test system is brain TNF production. Conditions: mice, intracerebroventricular lipopolysaccharide; cited from earlier work.
The target in the next data set is T1, B-Raf (Homo sapiens, UniProt P15056).
T1 construct: purchased Upstate Biotechnology
Description: AlphaScreen kinase assay, B-Raf. Format: biochemical. The settings on record: read-out: IC50, activity toward kinase B-Raf. On the technique in general: In Alpha technology, singlet oxygen from a donor bead excites a nearby acceptor bead.

The next data set has as its target T2, B-Raf V600E (Homo sapiens, UniProt P15056, V600E).
T2 construct: P4254. pFastBacBD-CDC37 BRAF D437-K722-X, V600E; His6 with pFastBac HT leader (TEV site) (N); made in house; host or cells: Sf9 (baculovirus; chaperone CDC37 co-expressed)
Description: AlphaScreen kinase assay, B-Raf V600E. Format: biochemical. Conditions: read-out: IC50, activity toward kinase B-Raf V600E.

The target of another data set is T3, c-Raf-1 (Homo sapiens, UniProt P04049).
T3 construct: purchased Upstate Biotechnology
Briefly: AlphaScreen kinase assay, c-Raf-1. Conditions: read-out: IC50, activity toward kinase c-Raf-1. Format: biochemical.

A further data set addresses T4, Flt3 (Homo sapiens, UniProt P36888).
T4 construct: purchased Invitrogen (assay run by Invitrogen)
T4 sequence (P36888 27-993): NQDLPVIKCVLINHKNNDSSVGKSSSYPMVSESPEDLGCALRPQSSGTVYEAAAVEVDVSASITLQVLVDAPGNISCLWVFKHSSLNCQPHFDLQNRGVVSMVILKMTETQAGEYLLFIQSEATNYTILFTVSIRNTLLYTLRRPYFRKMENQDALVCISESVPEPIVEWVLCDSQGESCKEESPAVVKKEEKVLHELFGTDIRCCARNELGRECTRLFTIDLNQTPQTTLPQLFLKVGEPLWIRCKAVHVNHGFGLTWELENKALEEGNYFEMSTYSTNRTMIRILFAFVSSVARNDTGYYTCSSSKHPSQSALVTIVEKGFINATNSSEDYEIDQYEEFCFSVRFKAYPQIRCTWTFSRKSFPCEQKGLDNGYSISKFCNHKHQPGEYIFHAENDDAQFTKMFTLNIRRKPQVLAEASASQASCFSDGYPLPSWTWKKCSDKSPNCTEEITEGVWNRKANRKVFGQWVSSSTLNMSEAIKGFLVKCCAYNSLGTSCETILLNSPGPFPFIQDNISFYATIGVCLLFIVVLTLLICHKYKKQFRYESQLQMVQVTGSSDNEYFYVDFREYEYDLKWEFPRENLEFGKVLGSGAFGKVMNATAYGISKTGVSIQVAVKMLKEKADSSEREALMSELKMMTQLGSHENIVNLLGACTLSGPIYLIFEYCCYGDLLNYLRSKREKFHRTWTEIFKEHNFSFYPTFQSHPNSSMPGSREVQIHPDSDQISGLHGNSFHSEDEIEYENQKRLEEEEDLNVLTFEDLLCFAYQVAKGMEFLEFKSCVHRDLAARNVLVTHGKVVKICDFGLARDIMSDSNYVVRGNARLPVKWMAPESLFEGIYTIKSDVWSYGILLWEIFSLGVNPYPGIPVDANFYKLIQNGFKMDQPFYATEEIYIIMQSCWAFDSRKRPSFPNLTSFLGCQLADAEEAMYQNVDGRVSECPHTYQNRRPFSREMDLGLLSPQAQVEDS
Description: Z'-Lyte FRET kinase assay (Invitrogen), Flt3. Format: biochemical. Conditions: read-out: IC50, activity toward kinase Flt3. An excerpt: The effect of potential modulators of kinase activity can be measured in a variety of different assays known in the art. For example, direct radiometric, indirect FRET or AlphaScreen assays may be used to assess the level of phosphorylation of a substrate in the presence of test compounds in order to determine the inhibitory affect of the compound on the kinase. Invitrogen (Carlsbad, Calif.) uses a FRET based assay for Btk, EGFR, EphB2, Flt3, lrak4, Kdr, MAP2K1, MAPKAPK2, PDGFRB, PKC theta, Stk6 and Yes. For these assays, compounds of the invention were screened by Invitrogen using Z′-Lyte™ kinase assay.
Briefly, the Invitrogen kinase assay involves use of a specific peptide substrate optimized for each kinase, containing a fluorophore at each end that make up the FRET pair. The peptide sensitivity to proteolytic cleavage depends on phosphorylation of the peptide. Non-phosphorylated peptide is cleaved by a protease while peptide phosphorylated by the kinase is not cleaved. Cleavage of the peptide disrupts the FRET between the donor (coumarin) and acceptor (fluorescein) fluorophores, resulting in an increase in the ratio of donor emission to acceptor emission. The emission ratio of coumarin to fluorescein is used to assess the reaction progress. The extent of phosphorylation is determined from the emission ratio, which is low when the kinase is active (phosphorylated peptide is not cleaved, FRET pair connected) or higher for inhibited kinase (non-phosphorylated peptide is cleaved, FRET pair separated). Thus, the assay involves a kinase reaction in the presence of varying concentrations of a given compound, a development reaction with site specific protease, and detection of the fluorescent emission ratio of coumarin and fluorscein. […] Reaction conditions for each kinase are determined to provide optimal reaction times, incubation temperature, kinase and ATP concentrations. Test samples are made up in 1× kinase buffer (50 mM HEPES pH 7.5, 50 mM MgCl2, 5 mM EGTA, 0.05% BRIJ-35) and compound at desired concentration prepared in DMSO such that the final DMSO is 1%. […] Typically, assay plates are prepared to 10 μl final volume per sample, adding 2.5 μl of compound at 4× the desired concentration in 4% DMSO (serial dilution of compound provides concentration curve), 5 μl of the desired kinase mixed with Z′-LYTE™ peptide substrate (2× in 2× kinase buffer, final peptide at 2 μM), and 2.5 μl of 4×ATP solution. All kinase except for MAP2K1 were at 10 μM ATP in the kinase reaction, while MAP2K1 was at 100 μM. Samples are mixed and the kinase reaction is incubated 1 hour at room temperature, after which 5 μl of development solution is added and mixed. After incubation for another 1 hour at room temperature, 5 μl of stop reagent is added to each sample and mixed. The fluorescence signals are measured to determine the emission ratio.

The target of another data set is T5, Kdr (Homo sapiens, UniProt P35968).
T5 construct: purchased Invitrogen (assay run by Invitrogen)
Briefly: Z'-Lyte FRET kinase assay (Invitrogen), Kdr. Format: biochemical. The settings on record: read-out: IC50, activity toward kinase Kdr.

The target in a further data set is ALK (Homo sapiens, UniProt Q9UM73). Description: AlphaScreen kinase assay, ALK. Type of data set: biochemical. The settings on record: read-out: IC50, activity toward kinase ALK. The text has this:
(§1) AlphaScreen assay was used to screen additional kinases. The assay is similarly dependent on the phosphorylation of a peptide substrate. In this assay, an antibody that recognizes phosphorylated substrate is bound to an acceptor bead. The peptide substrate is attached to biotin, which binds to a donor head that contains streptavidin. Thus phosphorylated substrate is bound by antibody and streptavidin, bringing the donor and acceptor heads into close proximity when kinase is not inhibited. The donor produces singlet oxygen which results in emission from the acceptor when they are in close proximity. Conversely, when kinase is inhibited, the donor and acceptor beads are not associated and the emission from the acceptor is reduced.
(§2) AlphaScreen assays were done using compounds dissolved in DMSO to a concentration of 20 mM. The compounds were diluted accordingly to the desired final concentrations in each sample well, using 1:3 serial dilution for a total of 8 concentration points.

For another data set, the target named is Frk (Homo sapiens, UniProt P42685). Briefly: AlphaScreen kinase assay, Frk. Format: biochemical. The settings on record: read-out: IC50, activity toward kinase Frk. Put shortly: (§3)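 Bead-proximity format: phosphopeptide links anti-phospho antibody acceptor beads to streptavidin donor beads via biotin tag. Compounds were serially diluted 1:3 (8 points) from 20 mM stocks in DMSO.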

Another data set concerns the target TrkA (Homo sapiens, UniProt P04629). Description: AlphaScreen kinase assay, TrkA. Type of data set: biochemical. Conditions: read-out: IC50, activity toward kinase TrkA.
From the text: as §1, §2

Another data set addresses Brk (Homo sapiens, UniProt Q13882). Description: AlphaScreen kinase assay, Brk. Format: biochemical. The settings on record: read-out: IC50, activity toward kinase Brk. The method in brief:
as §3

For data set [3], the system named is human gastric cancer cell line MKN28. The settings on record: cited from earlier work.
A further data set has as its system U87MG glioma cells. The settings on record: cited from earlier work.

Sequence of Brk (Q13882 whole entry): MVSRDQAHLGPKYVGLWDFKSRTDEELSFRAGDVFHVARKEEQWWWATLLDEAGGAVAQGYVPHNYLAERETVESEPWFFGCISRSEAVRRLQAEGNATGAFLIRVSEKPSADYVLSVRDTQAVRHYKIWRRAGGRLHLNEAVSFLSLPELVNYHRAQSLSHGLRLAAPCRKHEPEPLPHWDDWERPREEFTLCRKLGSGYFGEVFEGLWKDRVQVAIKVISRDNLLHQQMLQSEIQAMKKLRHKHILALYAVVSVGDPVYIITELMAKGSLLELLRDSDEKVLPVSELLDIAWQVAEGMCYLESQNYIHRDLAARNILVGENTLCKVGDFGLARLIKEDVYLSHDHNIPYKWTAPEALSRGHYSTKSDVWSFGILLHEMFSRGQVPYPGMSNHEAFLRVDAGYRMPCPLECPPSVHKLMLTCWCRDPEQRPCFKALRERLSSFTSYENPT
Sequence of ALK (Q9UM73 19-1620): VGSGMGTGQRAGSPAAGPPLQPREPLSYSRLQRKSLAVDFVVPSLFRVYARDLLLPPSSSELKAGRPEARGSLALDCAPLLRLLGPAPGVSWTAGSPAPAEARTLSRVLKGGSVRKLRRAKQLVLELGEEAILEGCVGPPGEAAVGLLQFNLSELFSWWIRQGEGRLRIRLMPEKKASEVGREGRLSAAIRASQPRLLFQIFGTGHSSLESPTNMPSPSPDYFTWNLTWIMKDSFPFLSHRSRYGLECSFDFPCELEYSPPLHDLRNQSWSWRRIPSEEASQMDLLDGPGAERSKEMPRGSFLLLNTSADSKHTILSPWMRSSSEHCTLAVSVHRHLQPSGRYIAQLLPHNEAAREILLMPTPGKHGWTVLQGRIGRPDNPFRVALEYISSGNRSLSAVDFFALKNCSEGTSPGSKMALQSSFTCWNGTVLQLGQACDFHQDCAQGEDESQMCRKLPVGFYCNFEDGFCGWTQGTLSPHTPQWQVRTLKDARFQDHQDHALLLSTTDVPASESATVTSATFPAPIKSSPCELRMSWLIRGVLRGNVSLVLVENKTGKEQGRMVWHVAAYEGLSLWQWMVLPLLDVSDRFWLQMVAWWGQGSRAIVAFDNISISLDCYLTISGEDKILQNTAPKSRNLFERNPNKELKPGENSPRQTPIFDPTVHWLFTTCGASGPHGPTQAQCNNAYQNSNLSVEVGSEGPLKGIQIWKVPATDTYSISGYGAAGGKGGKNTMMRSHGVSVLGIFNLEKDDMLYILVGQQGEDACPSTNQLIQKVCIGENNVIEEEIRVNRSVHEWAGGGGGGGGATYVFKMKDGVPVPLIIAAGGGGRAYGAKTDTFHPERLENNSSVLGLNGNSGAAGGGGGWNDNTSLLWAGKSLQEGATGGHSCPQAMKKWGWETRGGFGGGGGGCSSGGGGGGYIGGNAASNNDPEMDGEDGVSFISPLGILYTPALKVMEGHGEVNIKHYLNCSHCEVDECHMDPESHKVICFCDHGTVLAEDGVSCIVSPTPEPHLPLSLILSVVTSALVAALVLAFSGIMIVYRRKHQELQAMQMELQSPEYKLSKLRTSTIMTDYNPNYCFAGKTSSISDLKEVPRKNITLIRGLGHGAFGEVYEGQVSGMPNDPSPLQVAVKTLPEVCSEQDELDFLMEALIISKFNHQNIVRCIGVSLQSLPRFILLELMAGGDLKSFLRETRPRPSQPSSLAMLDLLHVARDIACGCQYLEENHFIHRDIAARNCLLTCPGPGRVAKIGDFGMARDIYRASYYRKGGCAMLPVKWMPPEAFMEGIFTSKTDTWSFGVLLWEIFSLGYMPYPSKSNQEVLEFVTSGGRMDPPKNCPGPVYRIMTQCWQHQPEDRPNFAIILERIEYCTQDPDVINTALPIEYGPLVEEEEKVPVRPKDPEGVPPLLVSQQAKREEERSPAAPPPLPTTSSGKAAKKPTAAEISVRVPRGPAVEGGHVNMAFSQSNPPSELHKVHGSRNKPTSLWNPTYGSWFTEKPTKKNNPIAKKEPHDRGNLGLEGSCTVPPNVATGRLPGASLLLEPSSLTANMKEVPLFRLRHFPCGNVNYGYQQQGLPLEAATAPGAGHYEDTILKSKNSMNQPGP
T1 sequence (P15056 whole entry): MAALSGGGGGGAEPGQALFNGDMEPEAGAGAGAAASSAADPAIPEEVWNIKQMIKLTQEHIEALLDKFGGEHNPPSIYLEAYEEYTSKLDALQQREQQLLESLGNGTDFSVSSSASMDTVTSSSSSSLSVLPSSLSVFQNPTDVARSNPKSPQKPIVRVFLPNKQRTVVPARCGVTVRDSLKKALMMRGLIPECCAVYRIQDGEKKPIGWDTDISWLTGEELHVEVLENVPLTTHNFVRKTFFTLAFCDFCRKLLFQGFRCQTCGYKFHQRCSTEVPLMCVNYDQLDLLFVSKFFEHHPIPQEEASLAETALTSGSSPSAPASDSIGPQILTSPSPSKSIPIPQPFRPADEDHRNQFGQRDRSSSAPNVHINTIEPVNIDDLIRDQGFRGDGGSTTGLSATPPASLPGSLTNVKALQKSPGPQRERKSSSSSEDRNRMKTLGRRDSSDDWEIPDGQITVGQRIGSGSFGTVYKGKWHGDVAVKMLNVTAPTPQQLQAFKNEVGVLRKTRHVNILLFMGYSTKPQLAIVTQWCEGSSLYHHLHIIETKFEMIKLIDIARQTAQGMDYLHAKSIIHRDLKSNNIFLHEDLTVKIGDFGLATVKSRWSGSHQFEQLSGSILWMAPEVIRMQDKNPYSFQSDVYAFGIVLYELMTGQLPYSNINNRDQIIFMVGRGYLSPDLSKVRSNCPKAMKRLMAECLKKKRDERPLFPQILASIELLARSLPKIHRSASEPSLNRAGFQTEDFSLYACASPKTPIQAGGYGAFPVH
T2 sequence (P15056 with tags, fused parts or gaps V600E): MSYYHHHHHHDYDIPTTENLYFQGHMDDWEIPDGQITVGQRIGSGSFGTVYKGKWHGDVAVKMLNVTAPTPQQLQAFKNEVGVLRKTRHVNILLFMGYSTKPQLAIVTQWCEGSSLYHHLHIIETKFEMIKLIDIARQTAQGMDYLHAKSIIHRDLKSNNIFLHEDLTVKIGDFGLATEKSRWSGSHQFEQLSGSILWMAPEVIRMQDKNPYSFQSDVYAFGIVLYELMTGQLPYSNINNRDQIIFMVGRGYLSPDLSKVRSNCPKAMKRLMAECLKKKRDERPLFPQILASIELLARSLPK
T3 sequence (P04049 whole entry): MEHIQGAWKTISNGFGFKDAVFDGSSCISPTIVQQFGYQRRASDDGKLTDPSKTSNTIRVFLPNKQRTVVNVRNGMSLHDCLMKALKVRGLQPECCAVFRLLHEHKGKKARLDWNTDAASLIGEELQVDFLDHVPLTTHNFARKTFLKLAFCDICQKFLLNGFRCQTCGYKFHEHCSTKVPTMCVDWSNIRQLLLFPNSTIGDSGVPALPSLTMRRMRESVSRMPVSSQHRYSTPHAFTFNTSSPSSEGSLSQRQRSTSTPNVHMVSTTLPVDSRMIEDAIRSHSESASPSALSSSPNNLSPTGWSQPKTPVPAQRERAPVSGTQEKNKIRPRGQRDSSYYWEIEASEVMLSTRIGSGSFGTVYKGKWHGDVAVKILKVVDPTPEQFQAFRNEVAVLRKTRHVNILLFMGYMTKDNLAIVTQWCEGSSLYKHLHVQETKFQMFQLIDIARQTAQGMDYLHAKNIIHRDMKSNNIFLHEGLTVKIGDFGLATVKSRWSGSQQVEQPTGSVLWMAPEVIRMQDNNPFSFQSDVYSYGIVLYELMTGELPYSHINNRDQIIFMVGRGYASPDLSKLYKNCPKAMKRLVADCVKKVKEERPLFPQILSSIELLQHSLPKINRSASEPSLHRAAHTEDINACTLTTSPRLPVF
Sequence of TrkA (P04629 33-796): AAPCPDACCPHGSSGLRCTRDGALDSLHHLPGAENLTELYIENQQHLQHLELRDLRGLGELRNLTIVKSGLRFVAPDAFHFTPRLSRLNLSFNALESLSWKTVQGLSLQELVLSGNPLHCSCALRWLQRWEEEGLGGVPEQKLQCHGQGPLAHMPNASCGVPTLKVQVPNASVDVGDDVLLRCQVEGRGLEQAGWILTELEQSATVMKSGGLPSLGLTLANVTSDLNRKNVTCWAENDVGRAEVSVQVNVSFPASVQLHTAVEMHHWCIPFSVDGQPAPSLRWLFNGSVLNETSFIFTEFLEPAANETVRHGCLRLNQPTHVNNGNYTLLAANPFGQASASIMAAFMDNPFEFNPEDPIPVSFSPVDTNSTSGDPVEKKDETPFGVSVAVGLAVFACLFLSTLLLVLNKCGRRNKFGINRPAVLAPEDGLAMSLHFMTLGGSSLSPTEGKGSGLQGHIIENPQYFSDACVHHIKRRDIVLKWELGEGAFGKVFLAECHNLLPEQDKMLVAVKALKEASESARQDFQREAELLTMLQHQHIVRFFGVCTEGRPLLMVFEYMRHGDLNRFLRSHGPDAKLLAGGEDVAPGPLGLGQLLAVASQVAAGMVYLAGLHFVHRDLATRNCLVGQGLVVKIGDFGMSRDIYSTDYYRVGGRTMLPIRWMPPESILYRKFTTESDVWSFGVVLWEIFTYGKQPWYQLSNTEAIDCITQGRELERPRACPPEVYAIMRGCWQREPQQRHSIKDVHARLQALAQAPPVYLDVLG
Sequence of Frk (P42685 whole entry): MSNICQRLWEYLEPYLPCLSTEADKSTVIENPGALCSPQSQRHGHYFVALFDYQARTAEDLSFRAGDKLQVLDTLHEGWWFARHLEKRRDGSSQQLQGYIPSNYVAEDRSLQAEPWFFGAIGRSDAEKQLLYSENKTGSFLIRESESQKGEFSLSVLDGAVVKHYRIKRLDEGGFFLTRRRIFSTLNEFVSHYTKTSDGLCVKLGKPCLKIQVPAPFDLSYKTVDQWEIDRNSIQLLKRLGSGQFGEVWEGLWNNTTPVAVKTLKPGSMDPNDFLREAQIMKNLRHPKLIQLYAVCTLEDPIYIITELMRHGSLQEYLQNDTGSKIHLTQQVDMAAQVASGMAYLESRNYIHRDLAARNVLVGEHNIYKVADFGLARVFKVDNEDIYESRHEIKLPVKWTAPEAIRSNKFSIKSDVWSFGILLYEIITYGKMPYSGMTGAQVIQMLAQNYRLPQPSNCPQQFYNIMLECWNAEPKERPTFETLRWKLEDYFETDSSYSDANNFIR

Turning to `Cc1cc2ncc(-c3ccccc3)nc2cc1C` [AG1295], the “cytotoxicity to AML blasts” value in data set [1] is recorded as “specifically cytotoxic”.

`CCSCc1ccc2c(c1)c1c3c(c4c5cc(CSCC)ccc5n5c4c1n2[C@H]1C[C@](O)(C(=O)OC)[C@]5(C)O1)CNC3=O` [CEP-1347]: the “cytokine production (TNF-alpha, IL-6, MCP-1)” value in data set [2] was “reduced cytokine production”. Moreover, the “brain TNF production” value with brain TNF production was “inhibited brain TNF production”.

The IC50 is the concentration that inhibits the measured activity by half. For `CCCS(=O)(=O)Nc1ccc(F)c(C(OC)c2c[nH]c3ncc(OC)cc23)c1F` (stereo not shown) [Compound P-1244, Propane-1-sulfonic acid {2,4-difluoro-3-[methoxy-(5-methoxy-1H-pyrrolo[2,3-b]pyridin-3-yl)-methyl]-phenyl}-amide], the IC50 on B-Raf, on B-Raf V600E, at c-Raf-1, at Flt3, at Kdr and on ALK was at most 10 µM throughout. Besides, the IC50 at Frk, at TrkA and on Brk was at most 10 µM each time.

On to `CS(=O)(=O)Nc1ccc([N+](=O)[O-])cc1OC1CCCCC1` [NS-398], for which the “proliferation and growth of MKN28 cells” value in [3] was “significantly inhibit proliferation and growth”.

Turning to `CN[C@@H]1C[C@H]2O[C@@](C)([C@@H]1OC)n1c3ccccc3c3c4c(c5c6ccccc6n2c5c31)C(=O)N[C@H]4O` [UCN-01, 7-hydroxystaurosporine], the “increase of the cytotoxicity of TMZ” value in the data set on U87MG glioma cells (combined with temozolomide) was 5 fold. Besides, in the data set with U87MG glioma cells (without TMZ), the “toxicity of the inhibitor alone” value is reported as “not in itself toxic”.

`COc1ccc2c(c1)c(CC(=O)O)c(C)n2C(=O)c1ccc(Cl)cc1` [indomethacin]: the “proliferation and growth of MKN28 cells” value in data set [3] was “significantly inhibit proliferation and growth”.
